Assay results published in article PMC12058161, “The plant matrix of Artemisia annua L. for the treatment of malaria: Pharmacodynamic and pharmacokinetic studies” (PLOS One, 2025).
“And” between values parts separate entries of the source, which are not always exact repeats. Equal values may be shown once.

How the values were obtained:
in vivo = conditions: male, Sprague Dawley, rat, po, 352 mg/kg
[1] = male, Sprague Dawley, rat, in vivo, po, 352 mg/kg
[2] = Stability of the five compounds in SD rat plasma (QC samples, UHPLC-ESI-MS/MS); type: in vitro ADME; conditions: for stability, Accuracy (measured versus nominal concentration) / stability, mean ± SD (measured concentration): SD rat plasma, n=5
Procedure: The method was validated according to the US Food and Drug Administration (FDA) Bioanalytical Method Validation Guidance as follows: [1] specificity was assessed by analyzing blank plasma, blank plasma spiked with standard solutions and rat plasma samples after oral administration. Each calibration curve was plotted using the concentration of the standard solution as the horizontal coordinate and the ratio of analyte to internal standard peak area as the vertical coordinate. The lower limit of quantification (LLOQ) refers to the lowest concentration, which is typically 10 times the signal-to-noise ratio. It has an acceptable accuracy of ± 20% and a precision of less than 20% [3]. Quality Control (QC) samples (low, medium and high concentrations) were prepared for each analyte. Five samples were analyzed at each concentration level and three consecutive batches were determined to calculate the accuracy and precision of the method. Extraction recovery was assessed by the ratio of the average peak area of routinely prepared QC samples (low, medium, and high concentrations) to the post-extraction plasma sample. Likewise, matrix effect was assessed by the ratio of peak areas between post-extraction samples spiked with analytes and mobile phases spiked with the same concentration of analytes.

[3] = nominal 20 ng/mL, 3 freeze-thaw cycles
[4] = nominal 20 ng/mL, 7 days at -80°C
[5] = nominal 20 ng/mL, Room temperature 24h
[6] = nominal 1000 ng/mL, 3 freeze-thaw cycles
[7] = nominal 1000 ng/mL, 7 days at -80°C
[8] = nominal 1000 ng/mL, Room temperature 24h
[9] = nominal 5000 ng/mL, 3 freeze-thaw cycles
[10] = nominal 5000 ng/mL, 7 days at -80°C
[11] = nominal 5000 ng/mL, Room temperature 24h

SMILES: C=C1CC[C@@H]2[C@H]3[C@@H](CC[C@H]2C)[C@@H](C)C(=O)O[C@H]13 [ARTI, Arteannuin I]
- AUC(0-inf) (in vivo): 1390 ± 586 ng·h/mL
- AUC(0-t) (in vivo): 990 ± 284 ng·h/mL
- Cmax (in vivo; Cmax): 222 ± 46.4 ng/mL
- MRT last (in vivo; MRT(0-t)): 4.34 ± 0.957 h
- half-life (in vivo; t1/2): 5.14 ± 1.8 h
- CL [1]: 0.016 ± 0.006 L/h
- Vz [1]: 0.114 ± 0.041 L
- Stability in plasma, measured concentration (mean ± SD) ([2]; 3 freeze-thaw cycles, QC concentration 20 ng/mL): 21.0 ± 1.74 ng/mL and 21.0437 ng/mL
- Stability in plasma, measured concentration (mean ± SD) ([2]; 3 freeze-thaw cycles, QC concentration 1000 ng/mL): 942 ± 21.5 ng/mL and 941.9 ng/mL
- Stability in plasma, measured concentration (mean ± SD) ([2]; 3 freeze-thaw cycles, QC concentration 5000 ng/mL): 4532 ± 63.0 ng/mL and 4531.84 ng/mL
- Stability in plasma, measured concentration (mean ± SD) ([2]; 7 days at -80°C, QC concentration 20 ng/mL): 20.6 ± 1.03 ng/mL and 20.6026 ng/mL
- Stability in plasma, measured concentration (mean ± SD) ([2]; 7 days at -80°C, QC concentration 1000 ng/mL): 920 ± 31.6 ng/mL and 920.324 ng/mL
- Stability in plasma, measured concentration (mean ± SD) ([2]; 7 days at -80°C, QC concentration 5000 ng/mL): 4563 ± 143 ng/mL and 4562.63 ng/mL
- Stability, measured concentration, mean ± SD ([2]; QC sample 20 ng/mL, 3 freeze-thaw cycles): 21.0 ± 1.74 ng/mL
- Stability, measured concentration, mean ± SD ([2]; QC sample 20 ng/mL, 7 days at -80°C): 20.6 ± 1.03 ng/mL
- Stability, measured concentration, mean ± SD ([2]; QC sample 20 ng/mL, Room temperature 24h): 21.1 ± 0.78 ng/mL
- Stability, measured concentration, mean ± SD ([2]; QC sample 1000 ng/mL, 3 freeze-thaw cycles): 942 ± 21.5 ng/mL
- Stability, measured concentration, mean ± SD ([2]; QC sample 1000 ng/mL, 7 days at -80°C): 920 ± 31.6 ng/mL
- Stability, measured concentration, mean ± SD ([2]; QC sample 1000 ng/mL, Room temperature 24h): 1003 ± 39.5 ng/mL
- Stability, measured concentration, mean ± SD ([2]; QC sample 5000 ng/mL, 3 freeze-thaw cycles): 4532 ± 63.0 ng/mL
- Stability, measured concentration, mean ± SD ([2]; QC sample 5000 ng/mL, 7 days at -80°C): 4563 ± 143 ng/mL
- Stability, measured concentration, mean ± SD ([2]; QC sample 5000 ng/mL, Room temperature 24h): 4765 ± 218 ng/mL
- Stability in plasma, measured concentration (mean ± SD) ([2]; Room temperature 24h, QC concentration 20 ng/mL): 21.1 ± 0.78 ng/mL and 21.1244 ng/mL
- Stability in plasma, measured concentration (mean ± SD) ([2]; Room temperature 24h, QC concentration 1000 ng/mL): 1002.91 ng/mL and 1003 ± 39.5 ng/mL
- Stability in plasma, measured concentration (mean ± SD) ([2]; Room temperature 24h, QC concentration 5000 ng/mL): 4764.7 ng/mL and 4765 ± 218 ng/mL
- stability, Accuracy (measured versus nominal concentration) [2, 3]: 105.22%
- stability, mean ± SD (measured concentration) [2, 3]: 21.0 ± 1.74 ng/mL
- stability, Accuracy (measured versus nominal concentration) [2, 4]: 103.01%
- stability, mean ± SD (measured concentration) [2, 4]: 20.6 ± 1.03 ng/mL
- stability, Accuracy (measured versus nominal concentration) [2, 5]: 105.62%
- stability, mean ± SD (measured concentration) [2, 5]: 21.1 ± 0.78 ng/mL
- stability, Accuracy (measured versus nominal concentration) [2, 6]: 94.19%
- stability, mean ± SD (measured concentration) [2, 6]: 942 ± 21.5 ng/mL
- stability, Accuracy (measured versus nominal concentration) [2, 7]: 92.03%
- stability, mean ± SD (measured concentration) [2, 7]: 920 ± 31.6 ng/mL
- stability, Accuracy (measured versus nominal concentration) [2, 8]: 100.29%
- stability, mean ± SD (measured concentration) [2, 8]: 1003 ± 39.5 ng/mL
- stability, Accuracy (measured versus nominal concentration) [2, 9]: 90.64%
- stability, mean ± SD (measured concentration) [2, 9]: 4532 ± 63.0 ng/mL
- stability, Accuracy (measured versus nominal concentration) [2, 10]: 91.25%
- stability, mean ± SD (measured concentration) [2, 10]: 4563 ± 143 ng/mL
- stability, Accuracy (measured versus nominal concentration) [2, 11]: 95.29%
- stability, mean ± SD (measured concentration) [2, 11]: 4765 ± 218 ng/mL
